One test concerns the target human recombinant FAAH (Homo sapiens (Human), UniProt O00519). Kind of test: In vitro inhibition of FAAH activity (fluorescent inhibitor screening kit, AMC arachidonoyl amide). The format is biochemical. As to conditions: human recombinant FAAH; read-out: Inhibition on FAAH activity (IC50). A digest of the protocol:
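Fluorogenic kit assay: AMC arachidonoyl amide is cleaved by human recombinant FAAH, read at 340-360/450-465 nm. Percent inhibition versus non-treated control; IC50 values derived from multiple compound concentrations where tested.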

In the next test the target is human recombinant MAGL (Homo sapiens (Human), UniProt Q99685). The test is described as follows: In vitro inhibition of MAGL activity (inhibitor screening kit, 4-nitrophenylacetate). The class given is biochemical. The note with it: human recombinant MAGL. A digest of the protocol:
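Percent inhibition derived from absorbance (405-412 nm) of treated wells relative to untreated enzyme control. Human recombinant MAGL with 4-nitrophenylacetate substrate, whose cleavage yields yellow 4-nitrophenol.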

Drawing on patent US20250129027A1 (APOGEE PHARMACEUTICALS, INC., priority 2023, published 2025), this text covers IC50 for 27 molecules.

As a reminder, the IC50 is the concentration at which inhibition is half-maximal.

A value given as a limit tells only on which side of the number the result lay.

Chain of human recombinant MAGL (Q99685 whole entry): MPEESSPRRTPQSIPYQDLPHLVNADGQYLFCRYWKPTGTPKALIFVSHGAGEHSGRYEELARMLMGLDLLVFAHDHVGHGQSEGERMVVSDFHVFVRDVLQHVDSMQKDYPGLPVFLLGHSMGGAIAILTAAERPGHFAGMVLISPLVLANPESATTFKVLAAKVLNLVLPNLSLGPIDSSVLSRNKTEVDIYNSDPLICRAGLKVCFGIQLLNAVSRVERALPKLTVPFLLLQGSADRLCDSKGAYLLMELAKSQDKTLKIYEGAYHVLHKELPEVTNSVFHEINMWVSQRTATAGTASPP
Chain of human recombinant FAAH (O00519 whole entry): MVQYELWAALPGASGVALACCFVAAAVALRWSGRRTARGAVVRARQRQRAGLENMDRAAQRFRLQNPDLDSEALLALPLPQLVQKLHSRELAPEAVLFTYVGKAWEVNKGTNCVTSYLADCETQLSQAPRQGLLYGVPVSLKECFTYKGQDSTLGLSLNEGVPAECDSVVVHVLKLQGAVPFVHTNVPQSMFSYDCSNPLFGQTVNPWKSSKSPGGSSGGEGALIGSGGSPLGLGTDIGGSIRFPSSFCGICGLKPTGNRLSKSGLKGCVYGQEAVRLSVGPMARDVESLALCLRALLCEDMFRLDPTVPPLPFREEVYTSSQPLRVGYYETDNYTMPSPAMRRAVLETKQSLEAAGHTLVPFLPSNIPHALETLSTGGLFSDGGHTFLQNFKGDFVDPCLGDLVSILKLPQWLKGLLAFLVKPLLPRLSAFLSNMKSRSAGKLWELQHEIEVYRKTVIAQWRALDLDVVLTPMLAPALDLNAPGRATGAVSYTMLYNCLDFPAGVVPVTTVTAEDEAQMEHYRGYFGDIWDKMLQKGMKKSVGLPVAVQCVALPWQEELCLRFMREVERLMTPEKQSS

For `O=C(NCC1CCCCC1)Oc1cccc(-c2cc(-c3nnco3)ccn2)c1` [Example 257, 3-(4-(1,3,4-oxadiazol-2-yl)pyridin-2-yl)phenyl (cyclohexylmethyl)carbamate], the results for the IC50 on human recombinant FAAH and on human recombinant MAGL were 10 to 100 nM and above 10 µM, respectively.

With `O=C(NC12CC3CC(CC(C3)C1)C2)Oc1cccc(-c2cncc(-c3ncco3)c2)c1` [Example 77, 3-(5-(oxazol-2-yl)pyridin-3-yl)phenyl ((1s,3s)-adamantan-1-yl)carbamate], the IC50 at human recombinant FAAH was above 1000 nM; on human recombinant MAGL, above 10 µM.

As to `COc1ccc(OC(=O)NC2CCCCCC2)cc1-c1cncc(-c2nnn[nH]2)c1` [Example 255, 3-(5-(1H-tetrazol-5-yl)pyridin-3-yl)-4-methoxyphenyl cycloheptylcarbamate], the IC50 on human recombinant FAAH is above 1000 nM; at human recombinant MAGL it was above 10 µM.

“3-(5-(1,3,4-oxadiazol-2-yl pyridin-3-yl)phenyl pentylcarbamate [Example 127]”: the IC50 was 10 to 100 nM on human recombinant FAAH and above 50 µM on human recombinant MAGL.

Consider `Cc1ccc(-c2cncc(-c3ncco3)c2)cc1OC(=O)NC1CCCCCCC1` [Example 98, 2-methyl-5-(5-(oxazol-2-yl)pyridin-3-yl)phenyl cyclooctylcarbamate], for which the results for the IC50 on human recombinant FAAH and at human recombinant MAGL were above 1000 nM and around 1 µM, respectively.

As for `O=C(NCC1CCCCC1)Oc1cccc(-c2cncc(-c3ccc[nH]3)c2)c1` [Example 36, 3-(5-(1H-pyrrol-2-yl)pyridin-3-yl)phenyl (cyclohexylmethyl)carbamate], the IC50 is 100 to 1000 nM at human recombinant FAAH and around 10 µM on human recombinant MAGL.

`O=C(NCC1CCCCC1)Oc1cccc(-c2cncc(-c3ncno3)c2)c1` [Example 204, 3-(5-(1,2,4-oxadiazol-5-yl)pyridin-3-yl)phenyl (cyclohexylmethyl)carbamate]: the results for the IC50 at human recombinant FAAH and on human recombinant MAGL were 10 to 100 nM and above 10 µM, respectively.

Consider `O=C(NC1CCCCC1)Oc1cccc(-c2cncc(-c3nnn[nH]3)c2)c1` [Example 242, 3-(5-(1H-tetrazol-5-yl)pyridin-3-yl)phenyl cyclohexylcarbamate], for which the half-maximal inhibitory concentration (IC50) was above 1000 nM at human recombinant FAAH and above 10 µM on human recombinant MAGL.

Consider `COc1ccc(OC(=O)NC2CCCC2)cc1-c1cncc(-c2nnco2)c1` [Example 169, 3-(5-(1,3,4-oxadiazol-2-yl)pyridin-3-yl)-4-methoxyphenyl cyclopentylcarbamate], for which the IC50 was 10 to 100 nM at human recombinant FAAH and above 10 µM on human recombinant MAGL.

In the case of `O=C(NC1CCCCC1)Oc1ccc(O)c(-c2cncc(-c3ncn[nH]3)c2)c1` [Example 230, 3-(5-(1H-1,2,4-triazol-5-yl)pyridin-3-yl)-4-hydroxyphenyl cyclohexyl carbamate], the IC50 is 100 to 1000 nM on human recombinant FAAH and above 10 µM at human recombinant MAGL.

`COc1ccc(OC(=O)NCc2ccccc2)cc1-c1cncc(-c2nccs2)c1` [Example 123, 4-methoxy-3-(5-(thiazol-2-yl)pyridin-3-yl)phenyl benzylcarbamate]: the half-maximal inhibitory concentration (IC50) is around 1000 nM on human recombinant FAAH and above 10 µM on human recombinant MAGL.

`COc1ccc(OC(=O)NCC2CCCCC2)cc1-c1cncc(-c2ccno2)c1` [Example 110, 3-(5-(isoxazol-5-yl)pyridin-3-yl)-4-methoxyphenyl (cyclohexylmethyl)carbamate]: the values for the IC50 on human recombinant FAAH and on human recombinant MAGL were 10 to 100 nM and around 10 µM, respectively.

Regarding `O=C(NCC1CCCCC1)Oc1cccc(-c2cncc(-c3nnco3)n2)c1` [Example 264, 3-(6-(1,3,4-oxadiazol-2-yl)pyrazin-2-yl)phenyl (cyclohexylmethyl)carbamate], the half-maximal inhibitory concentration (IC50) at human recombinant FAAH was 10 to 100 nM; on human recombinant MAGL it was around 10 µM.

On to `O=C(NCc1ccccc1)Oc1cccc(-c2cncc(-c3nnco3)c2)c1` [Example 135, 3-(5-(1,3,4-oxadiazol-2-yl)pyridin-3-yl)phenyl benzylcarbamate], for which the results for the IC50 on human recombinant FAAH and on human recombinant MAGL were above 100 nM and above 50 µM, respectively.

With `O=C(NCc1ccccc1)Oc1cccc(-c2cncc(-c3ncn[nH]3)c2)c1` [Example 221, 3-(5-(1H-1,2,4-triazol-5-yl)pyridin-3-yl)phenyl benzyl carbamate], the IC50 is 100 to 1000 nM on human recombinant FAAH and above 10 µM on human recombinant MAGL.

On to `Cc1ccc(-c2cncc(-c3ncco3)c2)cc1OC(=O)NCc1ccccc1` [Example 94, 2-methyl-5-(5-(oxazol-2-yl)pyridin-3-yl)phenyl benzylcarbamate], for which the IC50 at human recombinant FAAH was above 1000 nM; on human recombinant MAGL, above 1 µM.

With `O=C(NCC1CCCCC1)Oc1cccc(-c2cncc(-c3nnn[nH]3)c2)c1` [Example 239, 3-(5-(1H-tetrazol-5-yl)pyridin-3-yl)phenyl (cyclohexylmethyl)carbamate], the IC50 at human recombinant FAAH is above 1000 nM; at human recombinant MAGL it was above 10 µM.

As to `CCCCCCCCNC(=O)Oc1ccc(OC)c(-c2cncc(-c3nnn[nH]3)c2)c1` [Example 250, 3-(5-(1H-tetrazol-5-yl)pyridin-3-yl)-4-methoxyphenyl octylcarbamate], the IC50 was 100 to 1000 nM on human recombinant FAAH and around 10 µM at human recombinant MAGL.

Take `N#Cc1cncc(-c2cccc(OC(=O)NC3CCCCCC3)c2)c1` [Example 29, 3-(5-cyanopyridin-3-yl)phenyl cycloheptylcarbamate]: the IC50 on human recombinant FAAH is around 100 nM; on human recombinant MAGL, above 10 µM.

For the molecule `COc1ccc(OC(=O)NC2CCCC2)cc1-c1cncc(-c2nncs2)c1` [Example 216, 3-(5-(1,3,4-thiadiazol-2-yl)pyridin-3-yl)-4-methoxyphenyl cyclopentylcarbamate], the values for the IC50 at human recombinant FAAH and at human recombinant MAGL were 100 to 1000 nM and above 10 µM, respectively.

Consider `COc1ccc(OC(=O)NC2CCCC2)cc1-c1cncc(-c2cccs2)c1` [Example 68, 4-methoxy-3-(5-(thiophen-2-yl)pyridin-3-yl)phenyl cyclopentylcarbamate], for which the IC50 was 100 to 1000 nM at human recombinant FAAH and around 10 µM on human recombinant MAGL.

`CCCCCCCCNC(=O)Oc1cc(F)cc(-c2cncc(-c3nnco3)c2)c1` [Example 195, 3-(5-(1,3,4-oxadiazol-2-yl)pyridin-3-yl)-5-fluorophenyl octylcarbamate]: the results for the IC50 at human recombinant FAAH and at human recombinant MAGL were 1 to 10 nM and around 1 µM, respectively.

As to `CCCCCCCCNC(=O)Oc1ccc(OC)c(-c2cncc(-c3ncn[nH]3)c2)c1` [Example 232, 3-(5-(1H-1,2,4-triazol-5-yl)pyridin-3-yl)-4-methoxyphenyl octylcarbamate], the IC50 was 10 to 100 nM at human recombinant FAAH and around 10 µM at human recombinant MAGL.

For the molecule `CCCCCNC(=O)Oc1cccc(-c2cncc(-c3ncco3)c2)c1` [Example 71, 3-(5-(oxazol-2-yl)pyridin-3-yl)phenyl pentylcarbamate], the IC50 on human recombinant FAAH is 10 to 1000 nM; on human recombinant MAGL, above 10 µM.

Turning to `O=C(NC1CCCCC1)Oc1cccc(-c2cncc(-c3nccs3)c2)c1` [Example 119, 3-(5-(thiazol-2-yl)pyridin-3-yl)phenyl cyclohexylcarbamate], the IC50 was 10 to 100 nM at human recombinant FAAH and above 10 µM on human recombinant MAGL.

For the molecule `O=C(NCc1ccccc1)Oc1cccc(-c2cncc(-c3nnn[nH]3)c2)c1` [Example 240, 3-(5-(1H-tetrazol-5-yl)pyridin-3-yl)phenyl benzylcarbamate], the half-inhibitory concentration (IC50) at human recombinant FAAH is above 1000 nM; at human recombinant MAGL, above 10 µM.

Regarding `O=C(NC1CCCC1)Oc1cccc(-c2cncc(-c3nccs3)c2)c1` [Example 118, 3-(5-(thiazol-2-yl)pyridin-3-yl)phenyl cyclopentylcarbamate], the IC50 on human recombinant FAAH was around 100 nM; on human recombinant MAGL it was above 10 µM.
